Data taken from patent publication US20230190608A1, “COMPOSITIONS AND METHODS FOR IMPROVING THE APPEARANCE OF SKIN” (L'Oreal, priority 2021, published 2023).

Key:
[1] = system: filaggrin (FLG) expression; experiment: Ex vivo skin model, filaggrin immunohistochemical staining; assay type: cell-based, human; conditions: 0.1% acetyl trifluoromethylphenyl valylglycine added to 0.003% retinol, 7-day culture
Method: The effect of acetyl trifluoromethylphenyl valylglycine and/or retinoids on skin turnover/desquamation, filaggrin expression, desmocollin-1 expression was evaluated in an ex vivo skin model. In this study, the effects of acetyl trifluoromethylphenyl valylglycine (0.1%), retinol (0.003%) and acetyl trifluoromethylphenyl valylglycine+retinol on the skin were evaluated by H&E (assessing for overall tissue health), filaggrin (assessing the level of barrier renewal) and desmocollin-1 (assessing the tight junction between the keratinocytes).
Fresh post-abdominoplasty normal human skin samples (3 lots, age 36-59 years old, Hispanic/Caucasian/African American, female) were acquired from BioIVT Inc. (Westbury, N.Y.). Tissue was defatted and cleaned of blood residue. Explant samples were then created using a 12 mm biopsy punch. Samples were cleaned with sterile PBS. Skin biopsies not receiving treatment served as controls. Skin explants were maintained at air-liquid interface at 37° C. and 5% CO2 in four different treatment groups (n=3 per media type): • 1. […]
Skin explants were processed for haematoxylin and eosin, and immunohistochemical staining (Reveal Biosciences, CA). […] The primary staining was followed by rabbit anti-mouse IgG or anti-rabbit Poly-HRP-IgG respectively and were detected using the Bond Polymer Refine Detection kit (DS9800, Leica Biosystems, UK). […]

[2] = assay type: in vitro ADME, human
Method: Human skin samples were obtained from abdominal surgery. Excess subcutaneous fat was removed, if necessary. Skin samples were excised and cut into pieces of around 2 cm×2 cm. Thickness was measured and transepidermal water loss (TEWL) was measured. The human skin was included in the study if the TEWL was between 0.5 and 13 g/m^2/h for abdominal skin. The 2 cm^2 skin samples were kept in a static cell in a diffusion chamber in a Franz cell horizontal cell clamp system (Crown Glass Company, Inc.) and maintained at a constant temperature of 32° C.±1° C. The static cells consist of a donor chamber and a receptor chamber with a 7 mL receptor fluid compartment separated by the skin.
The cells were placed on a magnetic stirrer which was integrated with a fixed temperature water bath maintained in order to have 32° C.±1° C. at the skin surface. The receptor compartment of each cell was filled with the receptor fluid (PBS) and was continuously stirred. The skin samples were placed on the receptor compartment. The donor compartment was then placed onto the skin samples. […]
A composition containing 2 wt % acetyl trifluoromethylphenyl valylglycine was applied to the skin sample at a rate of 10 mg/cell using a positive displacement pipette and the exact amount applied was determined by weight then recorded (Sartorius Entris II Essential Analytical balance, Thermo-Fisher). […]
The skin was then stripped with consistent weight and time of application. […] The strips samples were stored with solvent (methanol) at −20° C. for a maximum of 5 days before being analyzed. […] The RS vials were stored with solvent (methanol) at −20° C. for a maximum of 7 days before being analyzed. Dermis and epidermis samples were stored with solvent at −20° C. for a maximum of 7 days before being analyzed. The receptor fluid was taken 16 hours after the application and the samples were analyzed.
Receptor fluid samples were stored at −20° C. for a maximum of 6 days before being analyzed. […] Samples were stored at −20° C. for a maximum of 5 days before being analyzed.
The final extract was analyzed by LC-MS/MS. […]

[3] = system: normal human skin samples (explants); experiment: Ex vivo skin model, H&E staining (overall tissue health); assay type: cell-based; conditions: 0.003% retinol in media, 7-day culture
[4] = system: desmocollin-1 (DSC1) expression; experiment: Ex vivo skin model, desmocollin-1 immunohistochemical staining; assay type: cell-based, human; conditions: 0.003% retinol in media, 7-day culture
Method: The effect of acetyl trifluoromethylphenyl valylglycine and/or retinoids on skin turnover/desquamation, filaggrin expression, desmocollin-1 expression was evaluated in an ex vivo skin model. In this study, the effects of acetyl trifluoromethylphenyl valylglycine (0.1%), retinol (0.003%) and acetyl trifluoromethylphenyl valylglycine+retinol on the skin were evaluated by H&E (assessing for overall tissue health), filaggrin (assessing the level of barrier renewal) and desmocollin-1 (assessing the tight junction between the keratinocytes). Fresh post-abdominoplasty normal human skin samples (3 lots, age 36-59 years old, Hispanic/Caucasian/African American, female) were acquired from BioIVT Inc. (Westbury, N.Y.). Tissue was defatted and cleaned of blood residue. Explant samples were then created using a 12 mm biopsy punch. Samples were cleaned with sterile PBS. Skin biopsies not receiving treatment served as controls. Skin explants were maintained at air-liquid interface at 37° C. and 5% CO2 in four different treatment groups (n=3 per media type): • 1. […] The primary staining was followed by rabbit anti-mouse IgG or anti-rabbit Poly-HRP-IgG respectively and were detected using the Bond Polymer Refine Detection kit (DS9800, Leica Biosystems, UK). […]

Structure (SMILES)	expression of filaggrin [1]	amount penetrated through the stratum corneum [2]	amount penetrating past the stratum corneum barrier into epidermis, dermis and receptor fluid [2]	dermal dose [2]	change in H&E [3]	expression of desmocollin-1 [4]
CC(=O)N(c1cccc(C(F)(F)F)c1)C(C(=O)NCC(=O)O)C(C)C (stereo not drawn) [acetyl trifluoromethylphenyl valylglycine]	increases the expression	about 0.08 wt %	about 0.8%	at least 0.08 wt %	–	–
CC1=C(/C=C/C(C)=C/C=C/C(C)=C/CO)C(C)(C)CCC1 [retinol]	–	–	–	–	some mild level of skin irritation	downward expression
